This is an account of results in PubChem BioAssay (NCI).

What all share (test): NCI tumour cell line growth inhibition, 48 h
The subject of assay [1] is SW-620 colon.
Assay [2] relates to A498 renal.
Assay [3] relates to DMS 114 small cell lung.
Assay [4] has as its system KM12 colon.
Assay [5] has as its system HOP-62 NSCLC.
Assay [6] has as its system SNB-75 CNS.
In assay [7] the test system is M19-MEL melanoma.
Assay [8] deals with CCRF-CEM leukemia.
Assay [9] concerns K-562 leukemia.
Assay [10] relates to LXFL 529 NSCLC.
For assay [11], the system named is DLD-1 colon.
For assay [12], the system named is MCF7 breast.

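The compound was tested at five concentrations on cells cultured in 96-well plates, with a 48-hour exposure period. GI50: concentration for 50% inhibition of growth. Definition used: TGI = concentration required for complete inhibition of growth.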

For the compound `Cc1c(C)c2ccc3oc4ccccc4c3c2oc1=O`, the TGI in [1], in assay [2], in assay [3], in assay [4], in [5] and in [6] was above 100 µM in each case. The TGI in assay [7], in assay [8], in assay [9], in assay [10] and in assay [11] was above 100 µM each time.

Turning to `C=CCC1(CN(C)C)CC/C(=C\c2ccc(OC)cc2)C1=O` (stereo not drawn), the TGI in [1], in [2], in assay [3], in assay [4], in assay [5] and in assay [6] was above 100 µM throughout. The TGI in assay [7], in [8], in [9], in assay [10] and in [11] was above 100 µM each time.

Regarding `CC(C)N(C(=O)C12C3C4C5(C#N)C3C1(C#N)C5C42C#N)C(C)C` (stereo not drawn), the TGI in assay [1], in [2], in assay [3], in assay [4], in assay [5] and in assay [6] was above 100 µM each time. Further, the TGI in assay [7], in assay [8], in assay [9], in assay [10] and in assay [11] was above 100 µM in each case.

In the case of `COC1CCC(OS(C)(=O)=O)C(CO)O1` (stereo not drawn), the TGI in assay [1], in assay [4], in assay [5], in assay [6], in assay [7] and in assay [8] was above 100 µM throughout. The TGI in [9], in assay [10] and in [11] was above 100 µM each time.

Consider `CSc1ccc2c(cc1=O)[C@@H](NC(=O)c1cccc([N+](=O)[O-])c1)CCc1cc(O)c(O)c(O)c1-2`, for which the TGI in assay [1] is 61.1 µM; in assay [2], 90.7 µM; in assay [3] it was 60 µM; in assay [4], above 100 µM; in assay [5], above 100 µM; in assay [6], 86.1 µM. For the same compound, the TGI was 49.4 µM in assay [7]; above 100 µM in assay [8]; 77.6 µM in [9]; above 100 µM in assay [10]; above 100 µM in [11].

Consider `Cc1ccc(C)c(N2C(=O)C(=O)C(c3nc4ccccc4s3)/C(=N/N)C2=O)c1` (stereo not drawn), for which the TGI is above 100 µM in [1]; above 22.6 µM in assay [2]; above 100 µM in assay [3]; above 100 µM in [4]; above 100 µM in assay [5]; above 100 µM in [6]. The TGI is above 52.7 µM in assay [7]; above 100 µM in assay [8]; above 100 µM in [9]; above 100 µM in [10]; above 100 µM in assay [11].

Turning to `NC(=O)NNC(=O)CCn1[nH]c(=O)c(Cl)c(Cl)c1=O`, the TGI in assay [1], in assay [2], in assay [3], in assay [5], in assay [6] and in assay [7] was above 100 µM in each case. Further, the TGI in assay [8], in assay [9], in assay [10] and in assay [11] was above 100 µM each time.

Turning to `CC1=N/C(=C/c2ccc3c(c2)OCO3)C(=O)O1`, the TGI in assay [1], in assay [2], in [3], in assay [4], in [6] and in assay [7] was above 100 µM each time. Also, the TGI in assay [8], in [9] and in [10] was above 100 µM each time.

In the case of `CCN(CC)CCCNc1nccc2c(C)c3c(cc12)c1cnccc1n3C`, the TGI in assay [1] came out at 1.48 µM; in [2], 2.61 µM; in assay [3], 0.463 µM; in [5] it was 0.571 µM; in assay [6], 1.74 µM; in [7], 2.67 µM. Also, the TGI in assay [8] was determined as 0.415 µM; in assay [9], 1.04 µM; in assay [11], 0.266 µM.

Regarding `O=C1C=C(Nc2ccc(Cl)cc2Cl)c2ccccc2C1=O`, the TGI in [1] is above 100 µM; in assay [2] it was above 100 µM; in assay [3] it was 64.1 µM; in assay [4] it was above 100 µM; in assay [5], above 100 µM; in [6] it was 70.4 µM. Also, the TGI in assay [7] is 26.3 µM; in [8], 85 µM; in [9] it was above 100 µM; in assay [10], above 100 µM; in assay [11] it was above 100 µM.

Take `COC(=O)c1cc2c(=O)n(C)c3ccccc3n2c1C(=O)OC`: the TGI in assay [1] is above 100 µM; in assay [2], above 100 µM; in assay [3], above 100 µM; in assay [4], above 100 µM; in [5] it was 36.9 µM; in assay [6], 37.3 µM. Also, the TGI in assay [7], in assay [8], in [9], in assay [10] and in assay [11] was above 100 µM throughout.

Turning to `C=C[C@@H](C)[C@]1(C(=O)OC)CCCC12OCCO2`, the TGI in assay [2], in assay [3], in [4], in assay [5], in assay [6] and in assay [7] was above 100 µM each time. In addition, the TGI in assay [8], in [9], in assay [10] and in assay [11] was above 100 µM each time.

As for `CCOC(OC(C)=O)[C@@H]1C=C[C@H](C)N(c2ccc([N+](=O)[O-])cc2)O1` (stereo partly drawn), the TGI in assay [1] was 9.2 µM; in assay [2], above 59.4 µM; in assay [3], 16.9 µM; in [4], 7.82 µM; in [5], 31.6 µM; in assay [6], 25.9 µM. For the same compound, the TGI in assay [7] is 5.3 µM; in assay [8], above 21.8 µM; in assay [9], above 26.7 µM; in assay [10], 10.8 µM; in assay [11] it was 11.1 µM.

As for `CC(=O)Nc1ccc(/C=C/C(=O)c2sc(-c3cccnc3)nc2C)cc1`, the TGI in assay [1], in assay [2], in [3], in [4], in [5] and in assay [6] was above 100 µM in each case. In addition, the TGI in assay [7], in [8], in [9] and in [11] was above 100 µM each time.

Consider `O=C(C(=O)c1cc2ccccc2[nH]1)c1cc2ccccc2[nH]1`, for which the TGI in [1], in assay [2], in assay [3], in [4], in [5] and in assay [6] was above 347 µM in each case. For the same compound, the TGI in [7], in assay [8], in [9], in [10] and in assay [11] was above 347 µM each time.

On to `CCC[C@H]1O[C@@H]2CC(=O)O[C@@H]2C2=C1C(=O)C=CC2=O`, for which the TGI in [1] is 35.7 µM; in assay [2], above 70.3 µM; in [4], 48.3 µM; in assay [5], above 95 µM; in [6], 36 µM; in assay [7], 41.7 µM. In addition, the TGI in assay [8] was above 47.9 µM; in assay [9], above 46.5 µM; in assay [10], 29.6 µM; in [11], 35.8 µM.

As to `N#C/C(=C\c1cc(O)cc(O)c1)C(N)=O`, the TGI in assay [1], in assay [2], in assay [3], in [4], in assay [5] and in assay [6] was above 100 µM throughout. The TGI in [7], in assay [8], in assay [9], in [10] and in assay [11] was above 100 µM each time.

`C=C(C)[C@H]1CC[C@@]2(C)C(C1)[C@H](C)CC[C@@H]2O` (stereo partly drawn): the TGI in [1], in assay [2], in assay [3], in assay [4], in assay [5] and in assay [6] was above 100 µM each time. Besides, the TGI in assay [7], in assay [8], in assay [9], in assay [10] and in assay [11] was above 100 µM in each case.

As for `Cc1nc2sccn2c1C(=O)NN`, the TGI in [1], in assay [3], in assay [4], in [5], in assay [7] and in [8] was above 100 µM in each case. The TGI in assay [9], in [10] and in assay [11] was above 100 µM each time.

On to `Cc1cnc2ccc(C)c([N+](=O)[O-])c2c1NCCCN(C)C`, for which the TGI in [1], in assay [3], in [4], in [5], in assay [7] and in assay [8] was above 100 µM throughout. The same compound returned a TGI in assay [9] above 100 µM.

`O=C(O)c1cc(-c2ccc3cc4c(cc3c2)OCO4)nc2ccccc12`: the TGI in assay [1] is above 100 µM; in assay [2], 75.1 µM; in assay [4], above 100 µM; in assay [5], above 100 µM; in assay [6], above 100 µM; in assay [8], 35.4 µM. The TGI in assay [9] and in [12] was above 100 µM in each case.

Turning to `C=CCNC(=O)NCCCCC(NC(C)=O)C(=O)NCc1ccccc1` (stereo not drawn), the TGI in assay [1], in [2], in [3], in [4], in assay [5] and in assay [6] was above 100 µM in each case. For the same compound, the TGI in [7], in assay [8], in assay [9] and in [10] was above 100 µM throughout.

In the case of `NNC(=O)C(=O)N/N=C(\CCCC(=O)Nc1ccc(Cl)cc1)CC(=O)c1ccc(F)cc1`, the TGI was above 100 µM in [1]; 88.6 µM in [2]; above 100 µM in assay [3]; above 100 µM in assay [4]; above 100 µM in assay [5]; above 100 µM in assay [6]. Besides, the TGI in [7], in assay [8], in assay [10] and in assay [11] was above 100 µM throughout.

With `COc1ccc(C(c2ccccc2)(c2ccc(OC)cc2)N2C(=O)NC3C(CCCCC(=O)NCCCCCCOP(OCCC#N)N(C(C)C)C(C)C)SCC32)cc1` (stereo not drawn), the TGI in assay [1] came to 43.8 µM; in assay [2], 35 µM; in assay [3], 36.8 µM; in [4] it was 34 µM; in assay [5], 36.6 µM; in assay [7] it was 33.1 µM. Besides, the TGI is 25.6 µM in assay [8], 32.2 µM in assay [9], 25.2 µM in assay [10] and 29.4 µM in assay [11].

On to `COc1ccc(/C=C\c2cc(OC)c(OC)c(OC)c2)cc1OCC(=O)Nc1nc2ccc(F)cc2s1`, for which the GI50 in assay [1] was 65.1 µM; in assay [2] it was 6.25 µM; in assay [4], 4.78 µM; in assay [5] it was 5.7 µM; in [6], 4.39 µM; in assay [8], 3.7 µM. Also, the GI50 is 3.62 µM in assay [9] and 2.3 µM in [12]. The TGI in assay [1], in [2], in assay [4], in assay [5], in assay [6] and in [8] was above 100 µM each time. Besides, the TGI in assay [9] and in assay [12] was above 100 µM each time.
